Four molecules from ChEMBL document CHEMBL1201862, “PubChem BioAssay data set” (2004) can be followed below.

Among the test systems are 786-0; HCC 2998; HOP-92; HT-29; IGROV-1; K562; LOX IMVI; M14; Malme-3M; NCI-H226; NCI-H522; OVCAR-3; OVCAR-4; OVCAR-5; RXF 393; SK-MEL-5; SW-620; UACC-62; RPMI-8226.
Holding throughout (assay): NCI tumour cell line growth inhibition, 48 h

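Results reflect a 48-hour exposure of cells in 96-well plates to compound at five concentrations. Abbreviation: GI50, concentration required for 50% inhibition of growth.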 Active and inactive are the calls of the source. Rule as the data show it: active = GI50 up to about 1.1 µM and inactive = higher.

Take `C#C/C=C\CCCCCCCCCCCCCC/C=C\CCCCC#CC(O)C#CCCCC/C=C\CCCCCC/C=C/C(O)C#C` (configuration not stated): the GI50 in the assay on 786-0 is 11.8 µM (inactive); in the assay with HCC 2998, 13.1 µM (inactive); in the assay with HOP-92, 16.4 µM (inactive); with HT-29 it was 18.3 µM (inactive); in the assay with IGROV-1, 13.6 µM (inactive); in the assay with K562, 23.8 µM (inactive). Moreover, the GI50 in the assay on LOX IMVI was 2.55 µM (inactive); in the assay on M14, 12.9 µM (inactive); in the assay on Malme-3M it was 17.1 µM (inactive); with NCI-H226 it was 32.1 µM (inactive); in the assay with NCI-H522, 5.7 µM (inactive); in the assay with OVCAR-3, 32.2 µM (inactive). For the same molecule, the GI50 with OVCAR-4 was 6.38 µM (inactive); in the assay on OVCAR-5, 26.1 µM (inactive); with RXF 393, 15.8 µM (inactive); in the assay with SK-MEL-5 it was 5.89 µM (inactive); in the assay with SW-620, 7.5 µM (inactive); with UACC-62 it was 11.8 µM (inactive).
Take `CCC1=[N+](CC)CCN1CC`: the GI50 with 786-0, in the assay on HCC 2998, with HOP-92, in the assay on HT-29, in the assay with IGROV-1 and with K562 was > 100 µM (inactive) in each case. Further, the GI50 in the assay with LOX IMVI, with M14, in the assay with Malme-3M, in the assay on NCI-H226, in the assay on NCI-H522 and with OVCAR-3 was > 100 µM (inactive) throughout. Also, the GI50 in the assay with OVCAR-4, in the assay on OVCAR-5, with RPMI-8226, in the assay on RXF 393, in the assay on SK-MEL-5 and with SW-620 was > 100 µM (inactive) each time.
As for `CCCNc1[nH]c(C(C)=O)c(N)c1C(=S)Nc1ccccc1`, the GI50 in the assay with 786-0 is 26.4 µM (inactive); with HCC 2998, > 100 µM (inactive); in the assay with HOP-92 it was 34 µM (inactive); in the assay on HT-29, 20 µM (inactive); with IGROV-1, 0.507 µM (active); in the assay with K562, 43.4 µM (inactive). Also, the GI50 with LOX IMVI was 23.3 µM (inactive); in the assay with M14, 19.4 µM (inactive); in the assay on Malme-3M it was 28 µM (inactive); in the assay on NCI-H226, 21.7 µM (inactive); in the assay on NCI-H522, 4.15 µM (inactive); in the assay with OVCAR-3 it was 42.4 µM (inactive). The GI50 in the assay with OVCAR-4 is 23.1 µM (inactive); in the assay with OVCAR-5, 68.9 µM (inactive); with RXF 393 it was 20.4 µM (inactive); in the assay on SK-MEL-5, 22.7 µM (inactive); in the assay on SW-620 it was > 100 µM (inactive); in the assay on UACC-62, 17.9 µM (inactive).
Turning to `COCn1c2ccc(OC(C)=O)cc2c2c(=O)oc(N(C)C)nc21`, the GI50 in the assay with 786-0, in the assay on HCC 2998, in the assay on HOP-92, in the assay with HT-29, in the assay on IGROV-1 and in the assay on K562 was > 100 µM (inactive) each time. In addition, the GI50 in the assay with LOX IMVI, in the assay with M14, with Malme-3M, in the assay with NCI-H226, with NCI-H522 and in the assay with OVCAR-4 was > 100 µM (inactive) in each case. For the same molecule, the GI50 in the assay on OVCAR-5, in the assay on RPMI-8226, with RXF 393, in the assay with SK-MEL-5, with SW-620 and in the assay on UACC-62 was > 100 µM (inactive) throughout.
